# Laboratory results as given in patent publication US20070128217A1 (priority 2003, published 2007).
# Tests used:
# [1] = system: antibodies in sera from SARS patients (sera 1a, 1b, 2, 6, 37, 62, London, SARS-yellow, SARS-green); format: binding, human; parameters: Binding of serum 6 to linear peptides of protein X1 of SARS-CoV Urbani / Binding of serum 37 to linear peptides of protein X1 of SARS-CoV Urbani / Binding of serum 6 to looped/cyclic peptide (PEPSCAN-ELISA) / Binding of serum 37 to looped/cyclic peptide (PEPSCAN-ELISA) / Binding of serum 37 to looped/cyclic peptides of protein X1 of SARS-CoV Urbani / Binding of serum 6 to linear peptides of protein X2 / Binding of serum 37 to linear peptides of protein X2 / Binding of serum 37 to looped/cyclic peptides of protein X2 of SARS-CoV Urbani / Binding of serum 6 to linear peptides of protein M of SARS-CoV Urbani / Binding of serum 37 to linear peptides of protein M of SARS-CoV Urbani / Binding of serum 6 to looped/cyclic peptides of protein M of SARS-CoV Urbani / Binding of serum 37 to looped/cyclic peptides of protein M of SARS-CoV Urbani / Binding of serum 6 to linear peptides of protein X3 of SARS-CoV Urbani / Binding of serum 37 to linear peptides of protein X3 of SARS-CoV Urbani / Binding of serum 37 to looped/cyclic peptides of protein X3 of SARS-CoV Urbani / Binding of serum 6 to linear peptides of protein X4 of SARS-CoV Urbani / Binding of serum 37 to linear peptides of protein X4 of SARS-CoV Urbani / Binding of serum 37 to looped/cyclic peptides of protein X4 of SARS-CoV Urbani / Binding of serum 6 to linear peptides of protein X5 of SARS-CoV Urbani / Binding of serum 37 to linear peptides of protein X5 of SARS-CoV Urbani / Binding of serum 37 to looped/cyclic peptides of protein X5 of SARS-CoV Urbani / Binding of serum 6 to linear peptides of protein N of SARS-CoV Urbani / Binding of serum 37 to linear peptides of protein N of SARS-CoV Urbani / Binding of serum 6 to linear peptide (PEPSCAN-ELISA) / Binding of serum 1a to looped/cyclic peptides of protein N of SARS-CoV Urbani / Binding of serum 1b to looped/cyclic peptides of protein N of SARS-CoV Urbani / Binding of serum 2 to looped/cyclic peptides of protein N of SARS-CoV Urbani / Binding of serum 6 to looped/cyclic peptides of protein N of SARS-CoV Urbani / Binding of serum 37 to looped/cyclic peptides of protein N of SARS-CoV Urbani / Binding of serum 62 to looped/cyclic peptides of protein N of SARS-CoV Urbani / Binding of serum London to looped/cyclic peptides of protein N of SARS-CoV Urbani / Binding of serum SARS-green to looped/cyclic peptides of protein N of SARS-CoV Urbani: unit not given here
# [2] = system: control sera (pooled serum of ten healthy LUMC hospital workers; commercial negative donor pooled serum from the Dutch bloodbank); format: binding, human; parameters: Binding of Control serum LUMC to linear peptides / Binding of Control serum Blood-bank to linear peptides / Binding of Control serum LUMC to looped peptides / Binding of Control Serum Blood-Bank to Looped peptides / Binding of Control serum LUMC to linear peptides of the protein M of SARS-CoV Urbani / Binding of Control serum Blood-bank to linear peptides of the protein M of SARS-CoV Urbani / Binding of Control serum LUMC to looped peptides of the protein M of SARS-CoV Urbani / Binding of Control Serum Blood-Bank to Looped peptides of the protein M of SARS-CoV Urbani: unit not given here
# [3] = system: rabbit serum obtained by immunizing a rabbit with the SARS-CoV strain Frankfurt 1; format: binding; parameters: Binding of a rabbit serum to linear peptides / Binding of a rabbit serum to looped peptides / Rabbit serum linear peptides / Rabbit serum looped peptides / Binding of a rabbit serum to linear peptides of protein N of SARS-CoV Urbani (Rabbit serum linear peptides) / Binding of a rabbit serum to looped/cyclic peptides of protein N of SARS-CoV Urbani (Rabbit serum looped peptides): unit not given here
sequence,measurement,setting,value
LTSLLKTHRMCKYTQ,Binding of serum 1a to linear peptides of protein X2,[1],0.7
same,Binding of serum 1a to looped/cyclic peptides of protein X2 of SARS-CoV Urbani,[1],0.4
same,Binding of serum 1b to linear peptides of protein X2,[1],0.3
same,Binding of serum 1b to looped/cyclic peptides of protein X2 of SARS-CoV Urbani,[1],0.3
same,Binding of serum 2 to linear peptides of protein X2,[1],0.5
same,Binding of serum 2 to looped/cyclic peptides of protein X2 of SARS-CoV Urbani,[1],0.2
same,Binding of serum 6 to linear peptides of protein X2,[1],0.5
same,Binding of serum 6 to looped/cyclic peptides of protein X2 of SARS-CoV Urbani,[1],0.2
same,Binding of serum 37 to linear peptides of protein X2,[1],0.6
same,Binding of serum 37 to looped/cyclic peptides of protein X2 of SARS-CoV Urbani,[1],0.3
same,Binding of serum 62 to linear peptides of protein X2,[1],0.6
same,Binding of serum 62 to looped/cyclic peptides of protein X2 of SARS-CoV Urbani,[1],0.4
same,Binding of serum London to linear peptides of protein X2,[1],0.5
same,Binding of serum London to looped/cyclic peptides of protein X2 of SARS-CoV Urbani,[1],0.2
same,Binding of serum SARS-green to linear peptides of protein X2,[1],0.2
same,Binding of serum SARS-green to looped/cyclic peptides of protein X2 of SARS-CoV Urbani,[1],0.2
same,Binding of serum SARS-yellow to linear peptides of protein X2,[1],0.4
same,Binding of serum SARS-yellow to looped/cyclic peptides of protein X2 of SARS-CoV Urbani,[1],0.3
same,Binding of Control Serum Blood-Bank to Looped peptides,[2],0.4
same,Binding of Control serum Blood-bank to linear peptides,[2],0.5
same,Binding of Control serum LUMC to linear peptides,[2],0.4
same,Binding of Control serum LUMC to looped peptides,[2],0.5
same,Binding of a rabbit serum to linear peptides,[3],0.3
same,Binding of a rabbit serum to looped peptides,[3],0.4
LVFLILCFTIKRKTE,Binding of serum 1a to linear peptides of protein X4 of SARS-CoV Urbani,[1],0.7
same,Binding of serum 1a to looped/cyclic peptides of protein X4 of SARS-CoV Urbani,[1],0.7
same,Binding of serum 1b to linear peptides of protein X4 of SARS-CoV Urbani,[1],0.6
same,Binding of serum 1b to looped/cyclic peptides of protein X4 of SARS-CoV Urbani,[1],0.4
same,Binding of serum 2 to linear peptides of protein X4 of SARS-CoV Urbani,[1],0.5
same,Binding of serum 2 to looped/cyclic peptides of protein X4 of SARS-CoV Urbani,[1],0.6
same,Binding of serum 6 to linear peptides of protein X4 of SARS-CoV Urbani,[1],0.7
same,Binding of serum 6 to looped/cyclic peptides of protein X4 of SARS-CoV Urbani,[1],0.7
same,Binding of serum 37 to linear peptides of protein X4 of SARS-CoV Urbani,[1],0.7
same,Binding of serum 37 to looped/cyclic peptides of protein X4 of SARS-CoV Urbani,[1],0.6
same,Binding of serum 62 to linear peptides of protein X4 of SARS-CoV Urbani,[1],0.8
same,Binding of serum 62 to looped/cyclic peptides of protein X4 of SARS-CoV Urbani,[1],0.7
same,Binding of serum London to linear peptides of protein X4 of SARS-CoV Urbani,[1],0.8
same,Binding of serum London to looped/cyclic peptides of protein X4 of SARS-CoV Urbani,[1],0.4
same,Binding of serum SARS-green to linear peptides of protein X4 of SARS-CoV Urbani,[1],0.7
same,Binding of serum SARS-green to looped/cyclic peptides of protein X4 of SARS-CoV Urbani,[1],0.2
same,Binding of serum SARS-yellow to linear peptides of protein X4 of SARS-CoV Urbani,[1],0.6
same,Binding of serum SARS-yellow to looped/cyclic peptides of protein X4 of SARS-CoV Urbani,[1],0.7
same,Binding of Control Serum Blood-Bank to Looped peptides,[2],0.8
same,Binding of Control serum Blood-bank to linear peptides,[2],0.8
same,Binding of Control serum LUMC to linear peptides,[2],0.6
same,Binding of Control serum LUMC to looped peptides,[2],0.6
same,Rabbit serum linear peptides,[3],0.5
same,Rabbit serum looped peptides,[3],0.6
